Test results taken from article PMC4069108 (PLoS ONE, 2014).

Experiments:
[1] = biological target: T1, human melatonin MT1 receptor (MT1 CHO membranes) (Homo sapiens, UniProt P48039); test: [3H]-melatonin competition, filtration; type: binding; conditions: for MT1 CHO membranes / pKi ± SEM: CHO membranes; […] [3H]-melatonin, pH […] MgCl2, […] °C, […] h
T1 construct: gene MTNR1A; receptor cDNA in pcDNA3.1, no tag mentioned; crude membranes
Excerpt: [3H]-melatonin competition, filtration on human melatonin MT1 receptor (MT1 CHO membranes)

[2] = biological target: T2, recombinant human MT1 receptor purified from Pichia pastoris (MT1 purified) (Homo sapiens, UniProt P48039); test: [3H]-melatonin competition, PEG precipitation and filtration; type: binding; conditions: for MT1 purified / pKi ± SEM: purified in […] Fos14/[…] CHAPS; […] [3H]-melatonin, […] CHAPS/[…] CHS, pH […] MgCl2, […] °C, […] h
T2 construct: gene MTNR1A; alpha-factor signal, Flag and 10-His tags
T2 sequence (P48039 whole entry): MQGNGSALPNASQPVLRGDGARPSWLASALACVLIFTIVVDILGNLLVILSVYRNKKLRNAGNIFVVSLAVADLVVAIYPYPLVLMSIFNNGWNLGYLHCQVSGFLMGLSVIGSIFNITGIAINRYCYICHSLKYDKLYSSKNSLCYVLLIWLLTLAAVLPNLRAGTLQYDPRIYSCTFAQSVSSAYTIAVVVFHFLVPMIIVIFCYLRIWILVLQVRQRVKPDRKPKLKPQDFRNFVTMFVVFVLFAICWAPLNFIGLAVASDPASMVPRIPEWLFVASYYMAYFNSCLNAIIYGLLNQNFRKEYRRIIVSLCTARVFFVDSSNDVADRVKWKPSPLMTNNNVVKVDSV
Excerpt: [3H]-melatonin competition, PEG precipitation and filtration on recombinant human MT1 receptor purified from Pichia pastoris (MT1 purified)

T1 sequence (P48039 whole entry): as above

SMILES | Ki ([1]; read-out: MT1 CHO membranes / pKi ± SEM (converted)) [µM] | Ki ([2]; read-out: MT1 purified / pKi ± SEM (converted)) [µM] | MT1 CHO membranes / pKi ± SEM [1] | MT1 purified / pKi ± SEM [2]
NCCc1c[nH]c2ccc(O)cc12 [5HT] | > 10 | > 10 |  | 
COc1ccc2ncn(CCNC(C)=O)c2c1 [S 21278] |  |  | 7.71±0.14 pKi (-log M) | 7.02±0.14 pKi (-log M)
COc1ccc(CCN(C)CCCC(C#N)(c2cc(OC)c(OC)c(OC)c2)C(C)C)cc1OC (centres unmarked) [D600] |  |  | 7.76±0.15 pKi (-log M) | 7.25±0.06 pKi (-log M)
COc1ccc2[nH]c(-c3cccc4ccccc34)c(CCNC(=O)CI)c2n1 [S 70254] |  |  | 7.32±0.31 pKi (-log M) | 8.51±0.12 pKi (-log M)
